Source: patent US8227228B2, “D-amino acid oxidase, and method for production of L-amino acid, 2-oxo acid, or cyclic imine” (priority 2005, dated 2012)

B1: D-amino acid oxidase (Sungouiella intermedia) (protein)
chain: MSEYVIVGSGIIGLYTGYKLLESGVPGESITVEAEFLPGDESIKYTSPYAGGNFSGITGDDPDSLKFDKHTYENLPKLQKLLGGPLCGLDMLPATEIWDNVKSKKIDSLKQYLKDYQEIEQEELPEGAKFGVKFTTWNFNCPKFLSNVQKYLLSKNVTFIRKNLTHITQAFGPATKCVFNCTGNGARFLGGVQDAKVYPTRGQVVVIKAPHINENMIRWGDNYATYIIKRPYSHDQLILGGFLQKDDWTPDTLSEQTEDILFRTTNLLPKILNQNPHGPNIEDLEIVRVVAGLRPSRHGGVRIEKEVLDGKLLIHNYGAGGYGYQSGLGMADKAVKLALGQSKL

How the values were obtained:
D-amino acid oxidase [1] = biological target: T1, D-amino acid oxidase (Sungouiella intermedia, UniProt A0A1L0GHW3); experiment: Substrate specificity of purified D-amino acid oxidase; assay type: biochemical, Candida intermedia NBRC0761; settings: purified enzyme; activity to D-Phe as 100%; each substrate in place of DL-phenylalanine
Description: The activity of the D-amino acid oxidase was measured by quantifying hydrogen peroxide produced in the reaction by an enzyme method using peroxidase. Hydrogen peroxide was quantified by an enzyme method as follows. 250 μl of a chromogenic solution containing 50 mM DL-phenylalanine, 0.80 mM 4-aminoantipyrine, 1.31 mM N-ethyl-N-(2-hydroxy-3-sulfopropyl)-m-toluidine, 6 u/ml peroxidase (manufactured by TOYOBO Inc.) and 50 mM Tris-hydrochloric acid buffer (pH 8.0) was mixed with 50 μl of an appropriately diluted enzyme solution, and the mixture was reacted at 30° C. for 30 min. Absorption at 555 nm was measured, and the amount of hydrogen peroxide produced in the reaction mixture was quantified based on the analytical curve prepared in advance. The amount of the enzyme that produced 1 μmol of hydrogen peroxide in 1 minute was defined as 1 unit. In addition, protein was quantified according to a Bradford method using BSA as a standard protein. The specific activity of the purified D-amino acid oxidase was 44.8 units/mg protein (30° C.).
(§1) Moreover, the D-amino acid oxidase activity for examining the properties of the enzyme shown below was measured as follows. 250 μl of a substrate solution containing 100 mM DL-phenylalanine and 50 mM Tris-hydrochloric acid buffer (pH 8.0) was maintained at 30° C. (each temperature for determining the range of operative temperature and the optimal temperature) for 5 min, mixed with 50 μl of an appropriately diluted enzyme solution, and the mixture was reacted at 30° C. (each temperature for determining the range of operative temperature and the optimal temperature) for 5 min. 10 μl of 3N HCl was added to stop the reaction. Then, 500 μl of a chromogenic solution containing 0.80 mM 4-aminoantipyrine, 1.31 mM N-ethyl-N-(2-hydroxy-3-sulfopropyl)-m-toluidine, 6 u/ml peroxidase (manufactured by TOYOBO Inc.) and 50 mM Tris-hydrochloric acid buffer (pH 8.0), which was maintained at 30° C. for 5 min, was mixed with 100 μl of the aforementioned reaction mixture. Absorption at 555 nm was measured, and the amount of hydrogen peroxide produced in the reaction mixture was quantified based on the analytical curve prepared in advance.
The substrate specificity of the purified D-amino acid oxidase was examined. The substrate DL-phenylalanine used in the aforementioned enzyme activity assay was changed to each substrate, and the enzyme activity was measured.

D-amino acid oxidase [2] = biological target: T1, D-amino acid oxidase; experiment: Temperature stability and pH stability (residual activity); assay type: physicochemical, Candida intermedia NBRC0761
Description: as §1
The temperature stability of the enzyme was measured based on the residual activity after a treatment at each temperature for 10 min.
The pH stability was examined. […]

[3] = substrate: N[C@H](Cc1ccccc1)C(=O)O; experiment: Measurement of Km value relative to D-Phe; assay type: biochemical, Candida intermedia NBRC0761; settings: other: D-Phe as substrate, various substrate concentrations, reciprocal plot (FIG. 2); pH 8.0; 30.0 °C
Description: as §1
Using D-Phe as a substrate, the activity was measured at various substrate concentrations and the Km value relative to D-Phe was determined. From the results shown in FIG. 2, the Km value relative to D-Phe was about 1.7 (not less than 1.6 and not more than 1.8) mM.

D-amino acid oxidase [4] = biological target: T1, D-amino acid oxidase; experiment: Range of reaction temperature and pH, optimal temperature and pH; assay type: biochemical, Candida intermedia NBRC0761
Description: as §1
The range of reaction temperature and the optimal temperature were examined.
The range of reaction pH and the optimal pH were examined. […] The enzyme was active at least within the examined range of pH 6-10.5, and the optimal pH was 8.5-9.5.

D-amino acid oxidase [5] = biological target: T1, D-amino acid oxidase; experiment: Specific activity of purified D-amino acid oxidase (hydrogen peroxide quantified with peroxidase); assay type: biochemical, Candida intermedia NBRC0761; settings: 30° C.; 1 unit = 1 μmol hydrogen peroxide in 1 minute; DL-phenylalanine, pH 8.0
Description: An enzyme solution is appropriately diluted, mixed with a chromogenic solution containing 50 mM DL-phenylalanine, 0.80 mM 4-aminoantipyrine, 1.31 mM N-ethyl-N-(2-hydroxy-3-sulfopropyl)-m-toluidine, 6 u/ml peroxidase (manufactured by TOYOBO Inc.), and 50 mM Tris-hydrochloric acid buffer (pH 8.0) at 1:5, and reacted at 30° C. for 30 min. The absorbance at 555 nm is measured, and the amount of hydrogen peroxide produced in the reaction mixture is quantified based on the analytical curve prepared in advance. In the embodiment, unless otherwise specified, this method was used to assay the D-amino acid oxidase activity.
The activity of the D-amino acid oxidase was measured by quantifying hydrogen peroxide produced in the reaction by an enzyme method using peroxidase. Hydrogen peroxide was quantified by an enzyme method as follows. […] Absorption at 555 nm was measured, and the amount of hydrogen peroxide produced in the reaction mixture was quantified based on the analytical curve prepared in advance. […] In addition, protein was quantified according to a Bradford method using BSA as a standard protein. […]

Molecule	relative activity (%) (D-amino acid oxidase [1])	further results
NC(CCBr)C(=O)O (racemic) [DL-2-amino-4-Br-butyric acid]	17.2	–
CCCC(N)C(=O)O (racemic) [DL-Norvaline]	93.8	–
CCC(C(=O)O)c1ccccc1 (racemic) [DL-α-phenylbutyric acid]	194.7	–
N[C@@H](C(=O)O)c1ccc(O)c(O)c1 [D-3,4-dihydroxy-phenylglycine]	5.7	–
C[C@@H](N)C(=O)O [D-Ala]	129.1	–
NC(N)=NCCCC(N)C(=O)O [D-Arg]	0.05	–
NC(=O)C[C@@H](N)C(=O)O [D-Asn]	5.8	–
N[C@H](CC(=O)O)C(=O)O [D-Asp]	0.0	–
NC(=O)CC[C@@H](N)C(=O)O [D-Gln]	5.8	–
N[C@H](CCC(=O)O)C(=O)O [D-Glu]	0.0	–
N[C@H](Cc1c[nH]cn1)C(=O)O [D-His]	4.2	–
CC[C@@H](C)[C@@H](N)C(=O)O [D-Ile]	16.6	–
CC(C)C[C@@H](N)C(=O)O [D-Leu]	96.7	–
NCCCC[C@@H](N)C(=O)O [D-Lys]	0.0	–
CSCC[C@@H](N)C(=O)O [D-Met]	100.5	–
O=C(O)[C@H]1CCCN1 [D-Pro]	44.3	–
N[C@H](CO)C(=O)O [D-Ser]	11.3	–
C[C@H](O)[C@@H](N)C(=O)O [D-Thr]	4.7	–
CC(C)[C@@H](N)C(=O)O [D-Val]	27.3	–
N[C@H](Cc1ccc(F)cc1)C(=O)O [D-p-F-Phe]	167.2	–
NCC(=O)O [Gly]	0.0	–
C[C@H](N)C(=O)O [L-Ala]	0.0	–
CSCC[C@H](N)C(=O)O [L-Met]	0.0	–
CCC[C@H](N)C(=O)O [L-Norvaline]	0.0	–
O=C(O)[C@@H]1CCCN1 [L-Pro]	0.0	–
B1	–	pH stability (comparatively stable at) (D-amino acid oxidase [2]; residual activity after 30° C. for 16 hr at each pH (FIG. 6)): 7.8-8.7 pH; temperature stability (stable at) (D-amino acid oxidase [2]; residual activity after treatment at each temperature for 10 min (FIG. 5)): ≤ 40 °C; Km [3]: 1700 µM; optimal pH (D-amino acid oxidase [4]; FIG. 4): 8.5-9.5 pH; range of reaction temperature (highly active) (D-amino acid oxidase [4]; examined range, activity at 30° C. as 100% (FIG. 3)): 20-60 °C; range of reaction pH (active) (D-amino acid oxidase [4]; examined range, activity at pH 8.0 as 100% (FIG. 4)): 6-10.5 pH; specific activity (D-amino acid oxidase [5]): 44.8 units/mg protein
